Results: US20230053540A1, “TREATMENT OF LIVER INJURY” (Massachusetts Institute of Technology, priority 2019, published 2023)

Test system: hepatocytes
Assay: Seq-Well scRNA-Seq of hepatocytes after APAP overdose (signature scores, DEG vs untreated)
Type: in vivo, mouse
Conditions: cluster A48 (APAP, 48 h)

CC(=O)Nc1ccc(O)cc1 [APAP, acetaminophen]
avg_logFC Cyp4a10: 1.157
avg_logFC Cyp4a14: 1.488
avg_logFC Dbp: 0.2929
avg_logFC Dcxr: 0.3518
avg_logFC Ddb1: 0.3373
avg_logFC Decr1: 0.5941
avg_logFC Decr2: 0.4308
avg_logFC Dhrs4: 0.342
avg_logFC Ech1: 0.5251
avg_logFC Echs1: 0.4926
avg_logFC Eef1d: 0.2745
avg_logFC Ephx2: 0.4864
avg_logFC Esrra: 0.2518
avg_logFC Etfb: 0.3542
avg_logFC Etnppl: 0.6045
avg_logFC F2: 0.3767
avg_logFC F10: 0.3879
avg_logFC F12: 0.385
avg_logFC Fah: 0.3039
avg_logFC Fam195a: 0.3544
avg_logFC Fcgrt: 0.4314
avg_logFC Fth1: 0.4342
avg_logFC G0s2: 0.4232
avg_logFC Gabarap: 0.4376
avg_logFC Galk1: 0.2686
avg_logFC Gcdh: 0.306
avg_logFC Gchfr: 0.3676
avg_logFC Ggnbp2: 0.2821
avg_logFC Glrx5: 0.3308
avg_logFC Gltscr2: 0.3759
avg_logFC Gm6484: 0.3759
avg_logFC Gsta2: 0.2734
avg_logFC Gsto1: 0.3392
avg_logFC Gstt2: 0.3234
avg_logFC Gstt3: 0.3834
avg_logFC Gys2: 0.4182
avg_logFC Hdac11: 0.3963
avg_logFC Herpud1: 0.5965
avg_logFC Hmgcl: 0.619
avg_logFC Hmgcs2: 0.8196
avg_logFC Hrg: 0.436
avg_logFC Hsd17b10: 0.4452
avg_logFC Hsd17b13: 0.6427
avg_logFC Ifnar2: 0.2833
avg_logFC Khk: 0.5338
avg_logFC Lamp1: 0.3377
avg_logFC Lcat: 0.4733
avg_logFC Lims2: 0.3931
avg_logFC Lipa: 0.3277
avg_logFC Mat1a: 0.6585
avg_logFC Mfsd2a: 0.5827
avg_logFC Mgll: 0.3192
avg_logFC Mia3: 0.3374
avg_logFC Mlycd: 0.4637
avg_logFC Mrpl43: 0.2692
avg_logFC Ndrg2: 0.3498
avg_logFC Ndufb2: 0.407
avg_logFC Ndufb10: 0.3471
avg_logFC Ndufs7: 0.2882
avg_logFC Ninj1: 0.3542
avg_logFC Nr1i3: 0.5739
avg_logFC Oaf: 0.5619
avg_logFC Pabpc1: 0.5116
avg_logFC Park7: 0.403
avg_logFC Pbld1: 0.3989
avg_logFC Pbld2: 0.3619
avg_logFC Pigr: 0.4224
avg_logFC Pitpnb: 0.2726
avg_logFC Plin5: 0.3264
avg_logFC Pnpla2: 0.3457
avg_logFC Ppara: 0.3442
avg_logFC Prodh2: 0.5179
avg_logFC Rabac1: 0.3343
avg_logFC Rbp4: 0.5139
avg_logFC Rdh7: 0.5575
avg_logFC Reep6: 0.5902
avg_logFC Retsat: 0.8734
avg_logFC Rgs16: 0.3803
avg_logFC Rpl4: 0.3744
avg_logFC Rpl38: 0.3455
avg_logFC Scand1: 0.2581
avg_logFC Sco2: 0.317
avg_logFC Sdhc: 0.4334
avg_logFC Sdhd: 0.4849
avg_logFC Sec14l2: 0.389
avg_logFC Serpina1d: 0.3563
avg_logFC Serpinf1: 0.3954
avg_logFC Serping1: 0.4435
avg_logFC Sh3glb1: 0.3259
avg_logFC Shmt1: 0.3827
avg_logFC Slc10a1: 0.4562
avg_logFC Slc25a10: 0.4539
avg_logFC Slc25a20: 0.4208
avg_logFC Slc25a47: 0.5249
avg_logFC Slc27a2: 0.3146
avg_logFC Slc27a5: 0.41
avg_logFC Slc37a4: 0.4211
avg_logFC Slc40a1: 0.332
avg_logFC Slco1a4: 0.5466
avg_logFC Smlr1: 0.3065
avg_logFC Snord118: 0.5286
